# Laboratory results reported in patent publication US20240308968A1, “FUNGICIDAL SUBSTITUTED HETEROCYCLES” (FMC Corporation, priority 2021, published 2024).
# What was measured:
# Type in all cases: in vivo
# Details in all cases: 100 = 100% disease control, 0 = no control
# [1] = system: Zymoseptoria tritici; assay: Test A: preventive spray on wheat seedlings, wheat leaf blotch disease rating
# In short: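 Disease scored after 17 days in a 20 °C growth chamber, following 48 h at 24 °C in saturated air after spore inoculation with Z. tritici. Inoculation came one day after wheat seedlings were sprayed to run-off with test suspension (acetone/water 50/50, 50–250 ppm PEG400).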
# [2] = system: Puccinia recondita f. sp. Tritici; assay: Test B: preventive spray on wheat seedlings, wheat leaf rust disease rating
# In short: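 Preventive test: one day after spraying wheat seedlings to run-off with ppm suspensions (acetone/water 1:1, 50-250 ppm PEG400), leaf rust spores were applied. Incubation was 24 h at saturation then 7 days at 20° C.; disease scored 0-100% control relative to untreated.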
# [3] = system: Blumeria graminis f. sp. Tritici; assay: Test C: preventive spray on wheat seedlings, wheat powdery mildew disease rating
# In short: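 Disease control scored visually after 8 days at 20° C, on a 0–100 scale versus untreated controls. Seedlings had received a preventive run-off spray one day before dusting with powdery mildew spores; compounds were suspended in acetone/water (50/50) containing 50–250 ppm PEG400.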
# [4] = system: Phakopsora pachyrhizi; assay: Test D: preventive spray on soybean seedlings, Asian soybean rust disease rating
# In short: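 Seedlings of soybean were challenged with rust spores one day after a run-off spray of test suspension (acetone/water 50/50, 50–250 ppm PEG400); after 24 h saturated humidity and 8 days growth, both at 22° C, disease was scored visually.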
# [5] = system: Botrytis cinerea; assay: Test E: preventive spray on tomato seedlings, tomato Botrytis disease rating
# In short: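 Preventive test: one day after spraying seedlings to run-off with test suspension (ppm in acetone/water, 50–250 ppm PEG400), B. cinerea spores applied. Incubation 48 h at 20 °C saturated humidity plus 3 days at 24 °C preceded visual rating as percent disease control versus controls.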
# [6] = system: Alternaria solani; assay: Test F: preventive spray on tomato seedlings, tomato early blight disease rating
# In short: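 Preventive test: a day after run-off spraying with acetone/water–PEG400 suspensions (ppm), seedlings received an A. solani spore inoculum. Incubation was 48 h at 27 °C in saturated air followed by 3 days in a 20 °C chamber. Visual scores express percent disease control versus untreated plants (0–100).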
compound,measurement,setting,value
COc1cc(OC)cc(-n2nc(CO)c(=O)c(C)c2-c2ccc(F)cc2Cl)c1 [Compound 91],Test A disease control rating,[1]; 250 ppm,0%
same,Test B disease control rating,[2]; 250 ppm,99%
same,Test C disease control rating,[3]; 250 ppm,0%
same,Test D disease control rating,[4]; 250 ppm,75%
same,Test E disease control rating,[5]; 250 ppm,79%
same,Test F disease control rating,[6]; 250 ppm,17%
COc1cc(OC)c(Cl)c(-n2nc(I)c(=O)c(C)c2-c2ccc(F)cc2Cl)c1 [Compound 96],Test A disease control rating,[1]; 50 ppm,100%
same,Test B disease control rating,[2]; 50 ppm,100%
same,Test C disease control rating,[3]; 50 ppm,99%
same,Test D disease control rating,[4]; 50 ppm,100%
same,Test E disease control rating,[5]; 50 ppm,98%
same,Test F disease control rating,[6]; 50 ppm,100%
CCOC(=O)c1nn(-c2cc(OC)cc(OC)c2Cl)c(-c2ccc(F)cc2Cl)c(C)c1=O [Compound 98],Test A disease control rating,[1]; 250 ppm,0%
same,Test B disease control rating,[2]; 250 ppm,98%
same,Test C disease control rating,[3]; 250 ppm,0%
same,Test D disease control rating,[4]; 250 ppm,94%
same,Test E disease control rating,[5]; 250 ppm,96%
same,Test F disease control rating,[6]; 250 ppm,0%
COc1cc(OC)c(Cl)c(-n2nc(CO)c(=O)c(Cl)c2-c2ccc(F)cc2Cl)c1 [Compound 99],Test A disease control rating,[1]; 250 ppm,100%
same,Test B disease control rating,[2]; 250 ppm,100%
same,Test C disease control rating,[3]; 250 ppm,95%
same,Test D disease control rating,[4]; 250 ppm,99%
same,Test E disease control rating,[5]; 250 ppm,93%
same,Test F disease control rating,[6]; 250 ppm,96%
COc1ccc(Cl)c(-n2nc(Br)c(=O)c(Cl)c2-c2ccc(F)cc2Cl)c1 [Compound 101],Test A disease control rating,[1]; 50 ppm,98%
same,Test B disease control rating,[2]; 50 ppm,99%
same,Test C disease control rating,[3]; 50 ppm,89%
same,Test D disease control rating,[4]; 50 ppm,99%
same,Test E disease control rating,[5]; 50 ppm,98%
same,Test F disease control rating,[6]; 50 ppm,98%
COc1ccc(Cl)c(-n2nc(Br)c(=O)c(Br)c2-c2ccc(F)cc2Cl)c1 [Compound 102],Test A disease control rating,[1]; 50 ppm,97%
same,Test B disease control rating,[2]; 50 ppm,99%
same,Test C disease control rating,[3]; 50 ppm,0%
same,Test D disease control rating,[4]; 50 ppm,99%
same,Test E disease control rating,[5]; 50 ppm,99%
same,Test F disease control rating,[6]; 50 ppm,88%
COc1ccc(Cl)c(-n2nc(Cl)c(=O)c(Cl)c2-c2ccc(F)cc2Cl)c1 [Compound 103],Test A disease control rating,[1]; 50 ppm,100%
same,Test B disease control rating,[2]; 50 ppm,100%
same,Test C disease control rating,[3]; 50 ppm,97%
same,Test D disease control rating,[4]; 50 ppm,100%
same,Test E disease control rating,[5]; 50 ppm,100%
same,Test F disease control rating,[6]; 50 ppm,99%
COc1ccc(Cl)c(-n2nc(OC)c(=O)cc2-c2ccc(F)cc2Cl)c1 [Compound 118],Test A disease control rating,[1]; 50 ppm,80%
same,Test B disease control rating,[2]; 50 ppm,99%
same,Test C disease control rating,[3]; 50 ppm,56%
same,Test D disease control rating,[4]; 50 ppm,0%
same,Test E disease control rating,[5]; 50 ppm,97%
same,Test F disease control rating,[6]; 50 ppm,0%
COC(=O)c1nn(-c2cc(OC)ccc2Cl)c(-c2ccccc2F)c(Cl)c1=O [Compound 122],Test A disease control rating,[1]; 50 ppm,0%
same,Test B disease control rating,[2]; 50 ppm,19%
same,Test C disease control rating,[3]; 50 ppm,0%
same,Test D disease control rating,[4]; 50 ppm,0%
same,Test E disease control rating,[5]; 50 ppm,0%
same,Test F disease control rating,[6]; 50 ppm,0%
"COc1ccc(Cl)c(-n2nc(C)c(=O)c(Cl)c2-c2ccc(F)cc2Cl)c1 [Compound 123, 5-chloro-1-(2-chloro-5-methoxyphenyl)-6-(2-chloro-4-fluorophenyl)-3-methyl-4(1)-pyridazinone]",Test A disease control rating,[1]; 50 ppm,100%
same,Test B disease control rating,[2]; 50 ppm,100%
same,Test C disease control rating,[3]; 50 ppm,100%
same,Test D disease control rating,[4]; 50 ppm,100%
same,Test E disease control rating,[5]; 50 ppm,99%
same,Test F disease control rating,[6]; 50 ppm,100%
"COc1ccc(Cl)c(-n2nc(C)c(=O)c(Br)c2-c2ccc(F)cc2Cl)c1 [Compound 124, 5-bromo-1-(2-chloro-5-methoxyphenyl)-6-(2-chloro-4-fluorophenyl)-3-methyl-4(1)-pyridazinone]",Test A disease control rating,[1]; 50 ppm,100%
same,Test B disease control rating,[2]; 50 ppm,100%
same,Test C disease control rating,[3]; 50 ppm,100%
same,Test D disease control rating,[4]; 50 ppm,100%
same,Test E disease control rating,[5]; 50 ppm,99%
same,Test F disease control rating,[6]; 50 ppm,100%
CCOC(=O)c1nn(-c2cc(OC)cc(OC)c2)c(-c2ccc(F)cc2)c(C(=O)OCC)c1=O [Compound 125],Test A disease control rating,[1]; 50 ppm,3%
same,Test B disease control rating,[2]; 50 ppm,28%
same,Test C disease control rating,[3]; 50 ppm,0%
same,Test D disease control rating,[4]; 50 ppm,0%
same,Test E disease control rating,[5]; 50 ppm,0%
same,Test F disease control rating,[6]; 50 ppm,0%
CCOC(=O)c1nn(-c2cc(OC)cc(OC)c2Cl)c(-c2ccc(F)cc2)c(C(=O)OCC)c1=O [Compound 126],Test A disease control rating,[1]; 50 ppm,0%
same,Test B disease control rating,[2]; 50 ppm,28%
same,Test C disease control rating,[3]; 50 ppm,0%
same,Test D disease control rating,[4]; 50 ppm,0%
same,Test E disease control rating,[5]; 50 ppm,0%
same,Test F disease control rating,[6]; 50 ppm,0%
CCOC(=O)c1nn(-c2cc(OC)cc(OC)c2Cl)c(-c2ccc(F)cc2F)c(C(=O)OCC)c1=O [Compound 127],Test A disease control rating,[1]; 50 ppm,0%
same,Test B disease control rating,[2]; 50 ppm,41%
same,Test C disease control rating,[3]; 50 ppm,0%
same,Test D disease control rating,[4]; 50 ppm,0%
same,Test E disease control rating,[5]; 50 ppm,0%
same,Test F disease control rating,[6]; 50 ppm,0%
COc1ccc(-c2c(Cl)c(=O)c(C)nn2-c2cc(OC)ccc2Cl)c(Cl)c1 [Compound 129],Test A disease control rating,[1]; 50 ppm,100%
same,Test B disease control rating,[2]; 50 ppm,100%
same,Test C disease control rating,[3]; 50 ppm,99%
same,Test D disease control rating,[4]; 50 ppm,99%
same,Test E disease control rating,[5]; 50 ppm,98%
same,Test F disease control rating,[6]; 50 ppm,100%
COc1ccc(-c2c(Br)c(=O)c(C)nn2-c2cc(OC)ccc2Cl)c(Cl)c1 [Compound 130],Test A disease control rating,[1]; 50 ppm,100%
same,Test B disease control rating,[2]; 50 ppm,100%
same,Test C disease control rating,[3]; 50 ppm,99%
same,Test D disease control rating,[4]; 50 ppm,98%
same,Test E disease control rating,[5]; 50 ppm,99%
same,Test F disease control rating,[6]; 50 ppm,100%
COc1ccc(Cl)c(-n2nc(Cl)c(=O)c(Br)c2-c2ccc(F)cc2Cl)c1 [Compound 134],Test A disease control rating,[1]; 50 ppm,100%
same,Test B disease control rating,[2]; 50 ppm,100%
same,Test C disease control rating,[3]; 50 ppm,86%
same,Test D disease control rating,[4]; 50 ppm,100%
same,Test E disease control rating,[5]; 50 ppm,99%
same,Test F disease control rating,[6]; 50 ppm,99%
COc1ccc(Cl)c(-n2nc(NC(C)=O)c(=O)cc2-c2ccc(F)cc2Cl)c1 [Compound 135],Test A disease control rating,[1]; 50 ppm,41%
same,Test B disease control rating,[2]; 50 ppm,89%
same,Test C disease control rating,[3]; 50 ppm,0%
same,Test D disease control rating,[4]; 50 ppm,0%
same,Test E disease control rating,[5]; 50 ppm,94%
same,Test F disease control rating,[6]; 50 ppm,0%
COc1ccc(Cl)c(-n2nc(Br)c(=O)cc2-c2ccc(F)cc2Cl)c1 [Compound 136],Test A disease control rating,[1]; 50 ppm,82%
same,Test B disease control rating,[2]; 50 ppm,99%
same,Test C disease control rating,[3]; 50 ppm,68%
same,Test D disease control rating,[4]; 50 ppm,0%
same,Test E disease control rating,[5]; 50 ppm,99%
same,Test F disease control rating,[6]; 50 ppm,0%
COc1cc(OC)cc(-c2cc(C#N)c(=O)n(N)c2-c2c(F)cc(F)cc2F)c1 [Compound 153],Test A disease control rating,[1]; 50 ppm,0%
same,Test B disease control rating,[2]; 50 ppm,80%
same,Test C disease control rating,[3]; 50 ppm,0%
same,Test D disease control rating,[4]; 50 ppm,0%
same,Test E disease control rating,[5]; 50 ppm,0%
same,Test F disease control rating,[6]; 50 ppm,0%
COc1ccc(Cl)c(-c2cc(C#N)c(=O)n(C)c2-c2ccc(F)cc2Cl)c1 [Compound 154],Test A disease control rating,[1]; 50 ppm,100%
same,Test B disease control rating,[2]; 50 ppm,98%
same,Test C disease control rating,[3]; 50 ppm,35%
same,Test D disease control rating,[4]; 50 ppm,59%
same,Test E disease control rating,[5]; 50 ppm,98%
same,Test F disease control rating,[6]; 50 ppm,0%
